Results as given in patent publication US9493540B2, “Ecdysone receptor/invertebrate retinoid X receptor-based inducible gene expression system” (Intrexon Corporation, priority 2001, dated 2016).

Key:
Format in all cases: cell-based, Choristoneura fumiferana
[1] = tested on: GAL4:CfEcR-DEF/VP16:LmUSP-EF; test: Luciferase reporter gene induction in stably transfected CHO cells (pFRLuc); conditions: stable clone 1A2, CHO cells, 0, 1, 5, or 25 μM ligand, 48 hours, maximum fold induction
From the text: This Example describes the construction of host cells comprising the EcR/invertebrate RXR-based gene expression modulation system according to the invention. To make stable cells expressing GAL4:CfEcR-DEF/VP16:LmUSP-EF (switch 1.18, prepared as described in Example 1), Applicants transfected the gene expression cassettes encoding the hybrid GAL4:CfEcR-DEF and VP16:LmUSP-EF polypeptides into Chinese hamster ovary CHO cells comprising a stably transfected reporter plasmid pFRLuc. […] The cells were harvested and reporter activity was assayed.
The transfected CHO cells were grown in the presence of 0, 1, 5, or 25 μM PonA steroid ligand or GS™-E non-steroid ligand for 48 hours. The cells were harvested, lysed and the reporter activity was measured. Total fly luciferase relative light units (RLU) are presented. The numbers on the top of the bars correspond to the maximum fold induction for each treatment. Bulk populations of cells were selected for resistance to the antibiotic neomycin (VP16:LmUSP/VP16:RXR constructs have the neomycin resistance gene incorporated). Several clones from each population were isolated by end point dilution. Three clones of stably transfected GAL4:CfEcR-DEF/VP16:LmUSP-EF cells were analyzed (see FIG. 10, clone 1A2; the data related to the two other clones are not shown).

[2] = tested on: GAL4CfEcR-DEF/VP16LmUSP-EF (switch 1.18); test: Effect of a second ligand on transactivation of the gene switch with pFRLuc in NIH3T3 cells; conditions: non-steroid ligand 1 μM or less, absence of 9-Cis-retinoic acid, 48 hours
Description: (§1) Transfections: DNAs corresponding to the various switch constructs outlined in Example 1, specifically switches 1.1 through 1.8, were transfected into mouse NIH3T3 cells (ATCC) as follows. […] For 12-well plates, 4 μl of Superfect™ was mixed with 100 μl of growth medium. […] The cells were harvested and reporter activity was assayed. […] Ligands: The steroidal ligand Ponasterone A (PonA) was purchased from Sigma Chemical Company. […] Reporter Assays: Cells were harvested 48 hours after adding ligands. […] Twenty μl of lysate were assayed. […] In addition, LmUSP worked better than vertebrate RXR as a CfEcR partner. In particular, both the sensitivity, i.e. the concentration of ligand required for transactivation, and the magnitude of transactivation were increased with LmUSP compared to vertebrate RXR. […]
In particular, Applicants have determined the effect of 9-cis-retinoic acid on the transactivation potential of the GAL4CfEcR-DEF/VP16LmUSP-EF (switch 1.18) gene switch along with pFRLuc in NIH3T3 cells in the presence of non-steroid (GSE) for 48 hours.
Briefly, GAL4CfEcR-DEF, pFRLuc and VP16LmUSP-EF were transfected into NIH3T3 cells and the transfected cells were treated with 0, 0.04, 0.2, 1, 5 and 25 μM non-steroidal ligand (GSE) and 0, 1, 5 and 25 μM 9-Cis-retinoic acid (Sigma Chemical Company). The reporter activity was measured at 48 hours after adding ligands.

CfEcR/LmUSP-based switch = test: Luciferase reporter induction by two-hybrid switches transfected into NIH3T3 cells; conditions: non-steroid compared with steroid PonA, 0, 1, 5 or 25 μM, 48 hours
Description: as §1
Briefly, full-length EcR and truncated EcRs, created by a truncation mutation at the junctions of A/B, C, D, E and F domains and fused to a GAL4 DNA binding domain encoding polynucleotide (SEQ ID NO: 33) as described in Example 1 above. […] The cells were harvested, lysed and luciferase reporter activity was measured in the cell lysates. […] The analysis was performed in triplicate and mean luciferase counts [total relative light units (RLU)] were determined as described above.

CC(C)CC[C@@H](O)[C@](C)(O)[C@H]1CC[C@@]2(O)C3=CC(=O)[C@@H]4C[C@@H](O)[C@@H](O)C[C@]4(C)[C@H]3CC[C@]12C [PonA, Ponasterone A]
fold induction [1]: 42 fold

CCc1c(OC)cccc1C(=O)NN(C(=O)c1cc(C)cc(C)c1)C(C)(C)C [non-steroidal ligand, N-(2-ethyl-3-methoxybenzoyl)-N′-(3,5-dimethylbenzoyl)-N′-t-butylhydrazine]
fold induction [1]: 162 fold | induction of reporter activity [2]: very little induction | sensitivity of the switch to ligand (CfEcR/LmUSP-based switch): more sensitive
